# Measurements reported in patent publication US20130072506A1, “6,8-DISUBSTITUTED PURINE COMPOSITIONS” (priority 2011, published 2013).
# System: SKH-1 hairless mice
# Test: Hairless mouse assay: epidermal bromodeoxyuridine (BrdU) staining
# Format: in vivo
# Excerpt: This study determined the effect of topical compound formulations on epidermal cell proliferation using bromodeoxyuridine as an immunohistochemical marker of cell proliferation. Histological examination of the treated and control skin were used to determine cutaneous effects of the topical compounds. Topical tretinoin 0.05% (Renova™) was used as a therapeutic control.
# Experimental Design. 48 female SKH-1 hairless mice (5 weeks old, 20-25 grams, Charles River Laboratories, Wilmington, Mass.) are individually housed in filter-top cages, and acclimated for 5-7 days after delivery. The mice are divided into 8 treatment groups (n=6), including two different control groups (untreated control, vehicle control) and a therapeutic control (tretinoin 0.05% Renova™ cream). Cage cards are marked to indicate treatment groups 1-8. Water and mouse chow are provided ad libitum.
# Topical Treatments. Beginning on Treatment Day 1, test products are applied topically each morning (Monday through Friday) after erythema evaluations for 3 weeks. Using a positive displacement pipette, 20 mg of each agent is applied to a 2 cm×2 cm area of the center midline of the back. The material was spread across the treatment area with the pipette tip.
# Bromodeoxyuridine Injection. All animal groups are injected with bromodeoxyuridine (100 mg/kg) I.P. 4 hours after the final application. Animals are sacrificed by CO2 inhalation 3 hours later followed by cervical dislocation. The test sites are excised, and 6 mm punch biopsies are obtained from each treatment site, and from untreated controls. Biopsies are placed into labeled vials containing 4% neutral buffered formalin for paraffin embedding and anti-BrdU staining.
# Bromodeoxyuridine Immunohistochemical Staining. Paraffin sections are cut to a […] thickness and stained using the BrdU Immuno-histochemistry kit (X1545K from Exalpha Biologicals, Inc.) and a standard staining protocol. The slides are weakly counterstained in Mayer's hematoxylin and scored under a light microscope for the number of BrdU-positive cells per mm of epidermis for each section. The data are expressed as mean BrdU-positive cells/mm for each treatment group. Differences in BrdU labeling in the treatment groups are statistically analyzed using the Students t-test. Representative photographs are taken of the histological sections of the BrdU-positive staining cells.
compound,measurement,setting,value
"Nc1nc2c(NCc3ccco3)ncnc2[nH]1 [Compound 82, 6-furfurylamino-8-aminopurine]",epidermal BrdU staining,after 3 weeks of topical treatment,more effective
same,Mean Nuclei Stained,"epidermal BrdU staining after 3 weeks of topical treatment, 0.1% (tretinoin 0.05%)",12.8 ± 13.3
